According to publication PMC8287724, “Reducing Auditory Nerve Excitability by Acute Antagonism of Ca^2+-Permeable AMPA Receptors” (Frontiers in Synaptic Neuroscience, 2021):
“And” between values parts separate entries of the source, which are not always exact repeats. Identical values can stand only once.

Tested on: auditory nerve compound action potential (CAP)
Experiment: Auditory nerve CAP during intracochlear (apical) perfusion
Format: in vivo, guinea pig
Method: This study utilized 21 NIH-strain, pigmented guinea pigs weighing from 400 to 650 g, in accordance with policies and protocols approved by the Institutional Animal Care and Use Committee at Washington University in St. Louis (20180133, 20190035). Animals were anesthetized with intraperitoneal (IP) injection of 100 mg/kg sodium thiobutabarbital (Inactin, Sigma, St. Louis, MO). Once anesthetized, the fur from the head and neck was shaved and a tracheal cannula was placed. The animal was maintained on 0.8–1.2% isoflurane in oxygen using a mechanical ventilator. The ventilator's tidal volume was adjusted to maintain a 5% end-tidal CO2 which was monitored with a CapnoTrue AMP (Bluepoint Medical, Zevenaar, The Netherlands). Body temperature was maintained at 38 degrees C with a DC-powered heating blanket-rectal thermometer (Model 50-7079; Harvard Apparatus). Heart rate and oxygen saturation were monitored with a pulse oximeter (Surgivet, Waukesha, WI). The auditory bulla was exposed ventrally for placement of recording electrodes. The jugular vein was cannulated to maintain hydration with 0.5 mL per hour of Lactated Ringer's solution. To prevent middle ear muscle contractions, vecuronium bromide (0.2 mg/kg) was administered immediately prior to data collection and every 1.5 h thereafter.
The head was stabilized in a head-holder with a solid ear bar on the left side and hollow ear bar on the right side, a bite bar, and a snout clamp. Sound calibration, stimulus generation, and recording methods have been detailed previously (Lichtenhan et al., [2016a], [2017]). Briefly, cochlear function measurements were made using MATLAB software (The MathWorks, Natick, MA) and the software utility Playrec. The stimulus was first generated in MATLAB, digitized at 96 kHz, presented to a 24-bit sound card (RME: Fireface802; Sweetwater, Fort Wayne, IN), and then routed to an acoustic probe system (ER-10X; Etymotic Research, Fort Wayne, IN). The ER-10X microphone was calibrated using a reference microphone (1/8” GRAS type 40P) and a custom-made coupling system was used for setting stimulus levels. Sound was presented through the hollow ear bar on the right side via the ER-10X microphone probe.
Cochlear output was recorded as a field potential between a Ag/AgCl ball electrode in the cochlear round window niche and a platinum needle electrode at the vertex of the cranium. Responses to 20 tone bursts (10 with reversed polarity) were averaged for each CAP measurement at a given frequency and level. The CAP audiogram was measured (1–22 kHz, 1/4 octave steps) at the beginning and end of the experiment to determine CAP threshold as a function of tone-burst frequency. Prior to and immediately after IEM-1460 perfusions via the apical cochlear fenestration (see below), CAPs were evoked by tone bursts at selected frequencies and levels. Measurements were repeated at 1- to 2-min intervals to monitor cochlear output and to ensure response stationarity for at least 25 min prior to drug delivery. Data with baseline changes >20% were excluded. The round window niche was monitored for accumulation of fluid.
At each probe frequency, CAP peak-to-peak amplitudes were measured from the first trough (N1) to the first peak (P1). Latencies were measured to the trough of N1. Cochlear output was compared before and after intraperitoneal drug delivery. The data were tested for normality using a Kolmogorov-Smirnov test. For CAP amplitude and latency, significance was assessed with the Mann-Whitney U-test. The Wilcoxon signed rank test was used to assess CAP threshold. Friedman test was used to compare concentrations of drug between perilymph and CSF. A p < 0.05 was considered statistically significant. A Bonferroni correction was used when performing multiple comparison testing. All statistical tests were performed with IBM SPSS Statistics Version 27 (SPSS Inc., Chicago, IL, United States). […]

[1] = 100 μM, across tone levels and frequencies

C[N+](C)(C)CCCCCNCC12CC3CC(CC(C3)C1)C2 [IEM-1460]
reduction of tone-evoked CAP amplitude (10 μM in perfusion): ~ 25%
reduction of CAP amplitude (100 μM in perfusion pipette, 80 dB SPL tones at 2 and 16 kHz, average): ~ 55%
reduction of CAP amplitude relative to pre-drug baseline (100 μM, 2 kHz tones): ~ 60%
reduction of CAP amplitude relative to pre-drug baseline (100 μM, 16 kHz tones): ~ 30%
additional CAP delay [1]: ~ 0.3 ms
increase of CAP latency relative to pre-drug [1]: ~ 10% and 10%
change in CAP threshold (100 μM, frequencies from 1 to 20 kHz): < 5 dB SPL
IC50 (Cavia porcellus, intracochlear perfusion 0.1 to 4,000 μM, 80 dB SPL probe, averaged for 2 and 16 kHz tones, Boltzmann fit, read-out: IC50, concentration for a 50% CAP reduction): ~73 µM
reduction of CAP amplitude (acute intracochlear delivery, all tone levels and frequencies (abstract, concentration not stated)): > 50%
